The subject of assay [1] is A2780. Description: Cytotoxicity against human A2780 cells assessed as intracellular ATP level at 10 uM after 72 hrs by luminometry. Type of assay: functional, cell-based.
In assay [2] the test system is MCF7. The assay is described as follows: Cytotoxicity against human MCF7 cells assessed as intracellular ATP level at 10 uM after 72 hrs by luminometry. Type of assay: functional, cell-based.
Assay [3] deals with T1, Broad substrate specificity ATP-binding cassette transporter ABCG2 (Homo sapiens, UniProt Q9UNQ0).
T1 sequence (Q9UNQ0 whole entry): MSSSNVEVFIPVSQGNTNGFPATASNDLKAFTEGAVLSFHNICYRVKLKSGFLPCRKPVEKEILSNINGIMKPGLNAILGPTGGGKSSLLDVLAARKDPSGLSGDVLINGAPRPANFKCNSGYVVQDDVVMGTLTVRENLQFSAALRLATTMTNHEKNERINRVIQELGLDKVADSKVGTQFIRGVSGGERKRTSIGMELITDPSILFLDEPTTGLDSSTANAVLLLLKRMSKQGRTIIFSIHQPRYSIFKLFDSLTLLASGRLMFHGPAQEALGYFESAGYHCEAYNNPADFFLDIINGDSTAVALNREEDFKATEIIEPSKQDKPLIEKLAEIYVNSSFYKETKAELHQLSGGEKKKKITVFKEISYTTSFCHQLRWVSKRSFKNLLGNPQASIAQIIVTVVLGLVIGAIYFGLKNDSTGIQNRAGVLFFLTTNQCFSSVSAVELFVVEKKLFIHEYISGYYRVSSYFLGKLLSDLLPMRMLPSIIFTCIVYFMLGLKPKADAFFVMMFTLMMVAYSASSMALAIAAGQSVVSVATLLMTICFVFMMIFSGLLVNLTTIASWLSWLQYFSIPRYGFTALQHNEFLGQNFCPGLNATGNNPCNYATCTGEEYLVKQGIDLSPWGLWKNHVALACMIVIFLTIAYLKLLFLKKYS
Description: Inhibition of BCRP expressed in MDCK cells using Hoechst 33342 staining. It is filed as cell-based. Conditions: read-out: IC50.

Assay [4] concerns the target T1, Broad substrate specificity ATP-binding cassette transporter ABCG2. The assay is described as follows: Inhibition of BCRP expressed in MCF-7 MX cells using Hoechst 33342 staining. It is filed as cell-based, MCF7. Conditions: read-out: IC50.
Assay [5] is described as follows: Inhibition of P-gp expressed in A2780adr cells by calcein AM accumulation assay. It is filed as cell-based. Conditions: A2780 ADR.
Assay [6] concerns the target ATP-dependent translocase ABCB1 (Homo sapiens, UniProt P08183). The assay is described as follows: Inhibition of MDR1 expressed in MDCK cells using rhodamine 123 staining by flow cytometry. It is filed as cell-based. On the technique in general: Flow cytometry measures light scatter and fluorescence of single cells or particles in a stream.
Assay [7] has as its system A2780. Description: Cytotoxicity against human A2780 cells assessed as intracellular ATP level after 72 hrs by luminometry. Type of assay: functional, cell-based. Conditions: A2780, 72 h; for pIC50: read-out: IC50.
Assay [8] deals with MCF7. Description: Cytotoxicity against human MCF7 cells assessed as intracellular ATP level after 72 hrs by luminometry. Type of assay: functional, cell-based. Conditions: MCF7, 72 h.
Assay [9] deals with A2780 ADR. Description: Inhibition of P-gp expressed in A2780adr cells at 10 uM by calcein AM accumulation assay relative to verapamil. It is filed as cell-based.
In assay [10] the target is Multidrug resistance-associated protein 1 (Homo sapiens, UniProt P33527). The assay is described as follows: Inhibition of MRP1 expressed in human 2008 cells assessed as calcein AM accumulation by cell based assay.
Chain of Multidrug resistance-associated protein 1 (P33527 whole entry): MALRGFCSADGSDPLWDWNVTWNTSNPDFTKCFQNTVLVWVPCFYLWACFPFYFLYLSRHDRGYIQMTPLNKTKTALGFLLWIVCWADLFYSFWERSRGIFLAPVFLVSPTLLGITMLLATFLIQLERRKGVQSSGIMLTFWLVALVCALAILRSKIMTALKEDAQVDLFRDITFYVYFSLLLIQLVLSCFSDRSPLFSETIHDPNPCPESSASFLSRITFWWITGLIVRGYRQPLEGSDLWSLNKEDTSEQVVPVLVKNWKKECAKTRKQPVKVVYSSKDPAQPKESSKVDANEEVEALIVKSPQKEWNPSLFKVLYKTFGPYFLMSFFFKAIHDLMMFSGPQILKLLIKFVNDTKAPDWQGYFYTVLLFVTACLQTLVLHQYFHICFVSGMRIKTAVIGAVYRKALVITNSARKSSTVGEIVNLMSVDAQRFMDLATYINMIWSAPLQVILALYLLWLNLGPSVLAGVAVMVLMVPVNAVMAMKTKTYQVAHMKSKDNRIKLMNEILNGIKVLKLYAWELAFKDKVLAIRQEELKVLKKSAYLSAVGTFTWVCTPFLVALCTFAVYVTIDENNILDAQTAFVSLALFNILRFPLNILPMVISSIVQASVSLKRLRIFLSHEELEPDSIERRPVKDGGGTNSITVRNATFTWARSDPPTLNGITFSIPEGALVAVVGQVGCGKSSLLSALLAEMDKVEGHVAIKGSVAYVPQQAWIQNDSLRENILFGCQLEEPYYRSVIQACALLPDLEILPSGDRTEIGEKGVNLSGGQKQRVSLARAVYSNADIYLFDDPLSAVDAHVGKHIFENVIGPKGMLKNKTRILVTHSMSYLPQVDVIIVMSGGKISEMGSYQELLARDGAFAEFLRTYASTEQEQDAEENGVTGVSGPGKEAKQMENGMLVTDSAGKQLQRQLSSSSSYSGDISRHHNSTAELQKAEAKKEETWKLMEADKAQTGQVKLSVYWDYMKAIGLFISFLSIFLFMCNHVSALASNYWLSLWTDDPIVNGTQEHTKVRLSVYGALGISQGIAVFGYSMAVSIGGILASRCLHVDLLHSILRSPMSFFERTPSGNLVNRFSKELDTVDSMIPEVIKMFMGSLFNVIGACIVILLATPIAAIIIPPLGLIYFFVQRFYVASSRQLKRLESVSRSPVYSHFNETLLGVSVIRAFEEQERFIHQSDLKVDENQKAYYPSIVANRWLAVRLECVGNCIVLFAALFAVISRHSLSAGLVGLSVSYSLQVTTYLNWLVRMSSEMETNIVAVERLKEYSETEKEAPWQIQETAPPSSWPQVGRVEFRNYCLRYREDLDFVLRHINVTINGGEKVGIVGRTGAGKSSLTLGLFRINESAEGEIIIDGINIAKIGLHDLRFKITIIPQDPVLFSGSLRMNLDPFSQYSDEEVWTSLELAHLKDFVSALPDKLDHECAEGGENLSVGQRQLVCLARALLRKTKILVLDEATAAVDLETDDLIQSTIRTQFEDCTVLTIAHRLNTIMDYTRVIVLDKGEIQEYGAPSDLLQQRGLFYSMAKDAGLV

Molecules are shown by their SMILES. pIC50: −log10 of the molar value. Active and inactive are the calls of the source. The calls are words filed in the database; no cut-off is given here.

Chain of ATP-dependent translocase ABCB1 (P08183 whole entry): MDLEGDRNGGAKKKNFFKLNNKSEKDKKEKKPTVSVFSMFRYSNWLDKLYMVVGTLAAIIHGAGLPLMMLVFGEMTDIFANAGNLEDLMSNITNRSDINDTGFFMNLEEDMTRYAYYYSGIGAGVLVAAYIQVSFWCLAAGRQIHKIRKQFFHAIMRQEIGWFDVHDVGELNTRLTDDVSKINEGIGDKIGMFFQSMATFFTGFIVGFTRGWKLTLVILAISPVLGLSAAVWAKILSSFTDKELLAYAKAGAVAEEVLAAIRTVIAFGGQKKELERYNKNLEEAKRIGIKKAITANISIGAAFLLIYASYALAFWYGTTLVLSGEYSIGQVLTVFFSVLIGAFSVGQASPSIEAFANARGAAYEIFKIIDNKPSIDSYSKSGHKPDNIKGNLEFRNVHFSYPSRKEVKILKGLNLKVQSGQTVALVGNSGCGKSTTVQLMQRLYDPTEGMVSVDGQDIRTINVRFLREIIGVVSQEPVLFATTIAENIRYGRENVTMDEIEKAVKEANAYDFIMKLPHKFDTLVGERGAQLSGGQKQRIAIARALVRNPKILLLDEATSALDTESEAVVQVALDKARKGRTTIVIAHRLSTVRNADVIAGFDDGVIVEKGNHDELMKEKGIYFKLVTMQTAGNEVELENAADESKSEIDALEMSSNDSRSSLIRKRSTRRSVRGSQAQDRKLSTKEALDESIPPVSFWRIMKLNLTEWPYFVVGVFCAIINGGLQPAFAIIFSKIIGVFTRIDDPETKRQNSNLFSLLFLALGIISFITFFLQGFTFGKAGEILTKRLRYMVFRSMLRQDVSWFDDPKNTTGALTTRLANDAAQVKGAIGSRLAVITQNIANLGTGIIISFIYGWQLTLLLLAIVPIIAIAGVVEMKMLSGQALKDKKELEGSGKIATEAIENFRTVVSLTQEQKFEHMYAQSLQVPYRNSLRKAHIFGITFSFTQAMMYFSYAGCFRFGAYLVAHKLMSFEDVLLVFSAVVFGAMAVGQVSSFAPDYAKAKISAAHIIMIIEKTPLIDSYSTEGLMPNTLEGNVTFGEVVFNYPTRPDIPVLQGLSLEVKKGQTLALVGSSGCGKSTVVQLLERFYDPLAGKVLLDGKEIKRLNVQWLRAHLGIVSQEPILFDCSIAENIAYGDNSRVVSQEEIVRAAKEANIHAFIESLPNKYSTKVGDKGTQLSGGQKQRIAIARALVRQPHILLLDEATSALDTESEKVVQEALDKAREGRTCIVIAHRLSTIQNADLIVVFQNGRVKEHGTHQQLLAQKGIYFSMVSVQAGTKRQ

Turning to `COC1=C(OC)[C@]2(OC)c3c(OC)c(OC)c4c(c3O[C@@]23O[C@@H](c2ccccc2)CC=C3C1=O)[C@@H](OC)C[C@H](c1ccccc1)O4`, the outcome in assay [1] and in assay [2] was Active. The pIC50 in assay [3] was 4.80; in assay [4], 4.33; in assay [5], 5.77; in assay [6], 5.85; in assay [7], 5.77; in assay [8] it was 5.72. In addition, the IC50 in [7] (read-out: pIC50 (converted)) is 2.14 µM. In assay [9], the inhibition result is “inactive”.

With `COC1=C(OC)[C@]2(OC)c3c(OC)c(OC)c4c(c3O[C@@]23O[C@@H](c2ccccc2)CC=C3C1=O)[C@@H](O)C[C@H](c1ccccc1)O4` [NEOCALYCOPTERON], the outcome in [1] and in assay [2] was Active. Besides, the pIC50 in assay [3] was 4.96; in [4], 4.82; in [5], 4.92; in [6], 5.10; in assay [7], 5.62; in [8], 5.62. The inhibition entry in [9] is “inactive”.

For the molecule `COc1ccc2c(c1)c(CC(=O)O)c(C)n2C(=O)c1ccc(Cl)cc1` [INDOMETHACIN], the pIC50 in assay [10] was 4.90.

Turning to `COc1cc(O)c2c(=O)c(OC)c(-c3ccc(OC)c(O)c3)oc2c1` [AYANIN], the result in assay [1] and in assay [2] was inactive. Besides, the pIC50 is 6.34 in [3]; 6.17 in assay [4]; 5.03 in assay [5]; 4.89 in [6]; 4.30 in [10]. Further, the inhibition entry in [9] was “inactive”.

Take `COc1cccc2c1C(=O)c1c(O)c3c(c(O)c1C2=O)C[C@@](O)(C(=O)CO)C[C@@H]3O[C@H]1C[C@H](N)[C@H](O)[C@H](C)O1` [DOXORUBICIN]: the figures for the pIC50 in assay [7] and in [8] were 7.36 and 7.00, respectively.

Turning to `COc1c2c(c3c(c1OC)[C@@]1(OC)C4=C(C(=O)[C@H](OC)[C@@]1(OC)O3)[C@H](OC)C[C@@H](c1ccccc1)O4)[C@H](O)C[C@@H](c1ccccc1)O2` [CALYFLORENON B], the outcome in assay [1] and in [2] was Active. For the same molecule, the pIC50 in assay [3] was 4.54; in assay [4], 4.40; in [5] it was 5.25; in assay [6] it was 5.10; in assay [7], 4.96; in assay [8] it was 4.82. Further, the inhibition result in [9] was “inactive”.

For the molecule `COc1cc(O)c2c(=O)c(OC)c(-c3ccc(OC)c(OC)c3)oc2c1` [RETUSIN], the result in assay [1] and in assay [2] was inactive. Moreover, the pIC50 in assay [3] was 6.41; in [4], 6.05; in assay [5], 4.92; in assay [6], 4.80; in [10], 4.30. In addition, the inhibition entry in assay [9] was “inactive”.

Turning to `COc1ccc2c(c1)C(=O)CC(c1ccccc1)O2` (centres undefined), the outcome in assay [1] and in [2] was inactive. For the same molecule, the pIC50 was 4.72 in assay [3], 4.34 in assay [4], 4.41 in [5] and 4.19 in [6]. Also, in assay [9], the inhibition entry was “inactive”.

One may read the pIC50 as −log10 of the IC50, conventionally taken in molar units.

Values taken from ChEMBL document CHEMBL1681785, “Structure-activity relationships of flavonoids as inhibitors of breast cancer resistance protein (BCRP)” (Bioorg Med Chem, 2011).
